According to US20070128217A1 (priority 2003, published 2007):

Tests used:
[1] = system: control sera (pooled serum of ten healthy LUMC hospital workers; commercial negative donor pooled serum from the Dutch bloodbank); format: binding, human; design: Binding of Control serum LUMC to linear peptides / Binding of Control serum Blood-bank to linear peptides / Binding of Control serum LUMC to looped peptides / Binding of Control Serum Blood-Bank to Looped peptides / Binding of Control serum LUMC to linear peptides of the protein M of SARS-CoV Urbani / Binding of Control serum Blood-bank to linear peptides of the protein M of SARS-CoV Urbani / Binding of Control serum LUMC to looped peptides of the protein M of SARS-CoV Urbani / Binding of Control Serum Blood-Bank to Looped peptides of the protein M of SARS-CoV Urbani: unit not given here
[2] = system: rabbit serum obtained by immunizing a rabbit with the SARS-CoV strain Frankfurt 1; format: binding; design: Binding of a rabbit serum to linear peptides / Binding of a rabbit serum to looped peptides / Rabbit serum linear peptides / Rabbit serum looped peptides / Binding of a rabbit serum to linear peptides of protein N of SARS-CoV Urbani (Rabbit serum linear peptides) / Binding of a rabbit serum to looped/cyclic peptides of protein N of SARS-CoV Urbani (Rabbit serum looped peptides): unit not given here
[3] = system: antibodies in sera from SARS patients (sera 1a, 1b, 2, 6, 37, 62, London, SARS-yellow, SARS-green); format: binding, human; design: Binding of serum 6 to linear peptides of protein X1 of SARS-CoV Urbani / Binding of serum 37 to linear peptides of protein X1 of SARS-CoV Urbani / Binding of serum 6 to looped/cyclic peptide (PEPSCAN-ELISA) / Binding of serum 37 to looped/cyclic peptide (PEPSCAN-ELISA) / Binding of serum 37 to looped/cyclic peptides of protein X1 of SARS-CoV Urbani / Binding of serum 6 to linear peptides of protein X2 / Binding of serum 37 to linear peptides of protein X2 / Binding of serum 37 to looped/cyclic peptides of protein X2 of SARS-CoV Urbani / Binding of serum 6 to linear peptides of protein M of SARS-CoV Urbani / Binding of serum 37 to linear peptides of protein M of SARS-CoV Urbani / Binding of serum 6 to looped/cyclic peptides of protein M of SARS-CoV Urbani / Binding of serum 37 to looped/cyclic peptides of protein M of SARS-CoV Urbani / Binding of serum 6 to linear peptides of protein X3 of SARS-CoV Urbani / Binding of serum 37 to linear peptides of protein X3 of SARS-CoV Urbani / Binding of serum 37 to looped/cyclic peptides of protein X3 of SARS-CoV Urbani / Binding of serum 6 to linear peptides of protein X4 of SARS-CoV Urbani / Binding of serum 37 to linear peptides of protein X4 of SARS-CoV Urbani / Binding of serum 37 to looped/cyclic peptides of protein X4 of SARS-CoV Urbani / Binding of serum 6 to linear peptides of protein X5 of SARS-CoV Urbani / Binding of serum 37 to linear peptides of protein X5 of SARS-CoV Urbani / Binding of serum 37 to looped/cyclic peptides of protein X5 of SARS-CoV Urbani / Binding of serum 6 to linear peptides of protein N of SARS-CoV Urbani / Binding of serum 37 to linear peptides of protein N of SARS-CoV Urbani / Binding of serum 6 to linear peptide (PEPSCAN-ELISA) / Binding of serum 1a to looped/cyclic peptides of protein N of SARS-CoV Urbani / Binding of serum 1b to looped/cyclic peptides of protein N of SARS-CoV Urbani / Binding of serum 2 to looped/cyclic peptides of protein N of SARS-CoV Urbani / Binding of serum 6 to looped/cyclic peptides of protein N of SARS-CoV Urbani / Binding of serum 37 to looped/cyclic peptides of protein N of SARS-CoV Urbani / Binding of serum 62 to looped/cyclic peptides of protein N of SARS-CoV Urbani / Binding of serum London to looped/cyclic peptides of protein N of SARS-CoV Urbani / Binding of serum SARS-green to looped/cyclic peptides of protein N of SARS-CoV Urbani: unit not given here

NSVLLFLAFVVFLLV
Binding of Control Serum Blood-Bank to Looped peptides [1]: 0.6 | Binding of Control serum Blood-bank to linear peptides [1]: 0.7 | Binding of Control serum LUMC to linear peptides [1]: 0.7 | Binding of Control serum LUMC to looped peptides [1]: 0.8 | Binding of a rabbit serum to linear peptides [2]: 0.6 | Binding of a rabbit serum to looped peptides [2]: 0.6 | Binding of serum 1a to linear peptides of protein E of SARS-CoV Urbani [3]: 0.8 | Binding of serum 1a to looped/cyclic peptides of protein E of SARS-CoV Urbani [3]: 0.6 | Binding of serum 1b to linear peptides of protein E of SARS-CoV Urbani [3]: 0.6 | Binding of serum 1b to looped/cyclic peptides of protein E of SARS-CoV Urbani [3]: 0.5 | Binding of serum 2 to linear peptides of protein E of SARS-CoV Urbani [3]: 0.6 | Binding of serum 2 to looped/cyclic peptides of protein E of SARS-CoV Urbani [3]: 0.6 | Binding of serum 6 to linear peptides of protein E of SARS-CoV Urbani [3]: 0.9 | Binding of serum 6 to looped/cyclic peptides of protein E of SARS-CoV Urbani [3]: 0.4 | Binding of serum 37 to linear peptides of protein E of SARS-CoV Urbani [3]: 0.7 | Binding of serum 37 to looped/cyclic peptides of protein E of SARS-CoV Urbani [3]: 0.7 | Binding of serum 62 to linear peptides of protein E of SARS-CoV Urbani [3]: 0.7 | Binding of serum 62 to looped/cyclic peptides of protein E of SARS-CoV Urbani [3]: 0.7 | Binding of serum London to linear peptides of protein E of SARS-CoV Urbani [3]: 0.6 | Binding of serum London to looped/cyclic peptides of protein E of SARS-CoV Urbani [3]: 0.3 | Binding of serum SARS-green to linear peptides of protein E of SARS-CoV Urbani [3]: 0.3 | Binding of serum SARS-green to looped/cyclic peptides of protein E of SARS-CoV Urbani [3]: 0.4 | Binding of serum SARS-yellow to linear peptides of protein E of SARS-CoV Urbani [3]: 0.2 | Binding of serum SARS-yellow to looped/cyclic peptides of protein E of SARS-CoV Urbani [3]: 0.7

LIVNSVLLFLAFVVF
Binding of Control Serum Blood-Bank to Looped peptides [1]: 0.8 | Binding of Control serum Blood-bank to linear peptides [1]: 0.5 | Binding of Control serum LUMC to linear peptides [1]: 0.3 | Binding of Control serum LUMC to looped peptides [1]: 0.8 | Binding of a rabbit serum to linear peptides [2]: 0.5 | Binding of a rabbit serum to looped peptides [2]: 0.3 | Binding of serum 1a to linear peptides of protein E of SARS-CoV Urbani [3]: 0.8 | Binding of serum 1a to looped/cyclic peptides of protein E of SARS-CoV Urbani [3]: 0.5 | Binding of serum 1b to linear peptides of protein E of SARS-CoV Urbani [3]: 0.6 | Binding of serum 1b to looped/cyclic peptides of protein E of SARS-CoV Urbani [3]: 0.4 | Binding of serum 2 to linear peptides of protein E of SARS-CoV Urbani [3]: 0.4 | Binding of serum 2 to looped/cyclic peptides of protein E of SARS-CoV Urbani [3]: 0.5 | Binding of serum 6 to linear peptides of protein E of SARS-CoV Urbani [3]: 0.7 | Binding of serum 6 to looped/cyclic peptides of protein E of SARS-CoV Urbani [3]: 0.4 | Binding of serum 37 to linear peptides of protein E of SARS-CoV Urbani [3]: 0.6 | Binding of serum 37 to looped/cyclic peptides of protein E of SARS-CoV Urbani [3]: 0.5 | Binding of serum 62 to linear peptides of protein E of SARS-CoV Urbani [3]: 0.6 | Binding of serum 62 to looped/cyclic peptides of protein E of SARS-CoV Urbani [3]: 0.6 | Binding of serum London to linear peptides of protein E of SARS-CoV Urbani [3]: 0.4 | Binding of serum London to looped/cyclic peptides of protein E of SARS-CoV Urbani [3]: 0.3 | Binding of serum SARS-green to linear peptides of protein E of SARS-CoV Urbani [3]: 0.4 | Binding of serum SARS-green to looped/cyclic peptides of protein E of SARS-CoV Urbani [3]: 0.2 | Binding of serum SARS-yellow to linear peptides of protein E of SARS-CoV Urbani [3]: 0.3 | Binding of serum SARS-yellow to looped/cyclic peptides of protein E of SARS-CoV Urbani [3]: 0.5

FNPETNILLNVPLRG
Binding of Control Serum Blood-Bank to Looped peptides of the protein M of SARS-CoV Urbani [1]: 0.8 | Binding of Control serum Blood-bank to linear peptides of the protein M of SARS-CoV Urbani [1]: 0.6 | Binding of Control serum LUMC to linear peptides of the protein M of SARS-CoV Urbani [1]: 0.7 | Binding of Control serum LUMC to looped peptides of the protein M of SARS-CoV Urbani [1]: 0.9 | Rabbit serum linear peptides [2]: 0.0 | Rabbit serum looped peptides [2]: 0.4 | Binding of serum 1a to linear peptides of protein M of SARS-CoV Urbani [3]: 0.8 | Binding of serum 1a to looped/cyclic peptides of protein M of SARS-CoV Urbani [3]: 0.8 | Binding of serum 1b to linear peptides of protein M of SARS-CoV Urbani [3]: 0.6 | Binding of serum 1b to looped/cyclic peptides of protein M of SARS-CoV Urbani [3]: 0.8 | Binding of serum 2 to linear peptides of protein M of SARS-CoV Urbani [3]: 0.5 | Binding of serum 2 to looped/cyclic peptides of protein M of SARS-CoV Urbani [3]: 0.7 | Binding of serum 6 to linear peptides of protein M of SARS-CoV Urbani [3]: 0.5 | Binding of serum 6 to looped/cyclic peptides of protein M of SARS-CoV Urbani [3]: 0.7 | Binding of serum 37 to linear peptides of protein M of SARS-CoV Urbani [3]: 0.5 | Binding of serum 37 to looped/cyclic peptides of protein M of SARS-CoV Urbani [3]: 0.9 | Binding of serum 62 to linear peptides of protein M of SARS-CoV Urbani [3]: 0.4 | Binding of serum 62 to looped/cyclic peptides of protein M of SARS-CoV Urbani [3]: 0.8 | Binding of serum London to linear peptides of protein M of SARS-CoV Urbani [3]: 0.3 | Binding of serum London to looped/cyclic peptides of protein M of SARS-CoV Urbani [3]: 0.3 | Binding of serum SARS-green to linear peptides of protein M of SARS-CoV Urbani [3]: 0.5 | Binding of serum SARS-green to looped/cyclic peptides of protein M of SARS-CoV Urbani [3]: 0.3 | Binding of serum SARS-yellow to linear peptides of protein M of SARS-CoV Urbani [3]: 0.2 | Binding of serum SARS-yellow to looped/cyclic peptides of protein M of SARS-CoV Urbani [3]: 0.8

VTLAILTALRLCAYC
Binding of Control Serum Blood-Bank to Looped peptides [1]: 0.9 | Binding of Control serum Blood-bank to linear peptides [1]: 0.5 | Binding of Control serum LUMC to linear peptides [1]: 0.6 | Binding of Control serum LUMC to looped peptides [1]: 0.8 | Binding of a rabbit serum to linear peptides [2]: 0.1 | Binding of a rabbit serum to looped peptides [2]: 0.4 | Binding of serum 1a to linear peptides of protein E of SARS-CoV Urbani [3]: 0.6 | Binding of serum 1a to looped/cyclic peptides of protein E of SARS-CoV Urbani [3]: 0.7 | Binding of serum 1b to linear peptides of protein E of SARS-CoV Urbani [3]: 0.5 | Binding of serum 1b to looped/cyclic peptides of protein E of SARS-CoV Urbani [3]: 0.5 | Binding of serum 2 to linear peptides of protein E of SARS-CoV Urbani [3]: 0.6 | Binding of serum 2 to looped/cyclic peptides of protein E of SARS-CoV Urbani [3]: 0.9 | Binding of serum 6 to linear peptides of protein E of SARS-CoV Urbani [3]: 0.3 | Binding of serum 6 to looped/cyclic peptides of protein E of SARS-CoV Urbani [3]: 0.6 | Binding of serum 37 to linear peptides of protein E of SARS-CoV Urbani [3]: 0.4 | Binding of serum 37 to looped/cyclic peptides of protein E of SARS-CoV Urbani [3]: 0.6 | Binding of serum 62 to linear peptides of protein E of SARS-CoV Urbani [3]: 0.4 | Binding of serum 62 to looped/cyclic peptides of protein E of SARS-CoV Urbani [3]: 0.8 | Binding of serum London to linear peptides of protein E of SARS-CoV Urbani [3]: 0.5 | Binding of serum London to looped/cyclic peptides of protein E of SARS-CoV Urbani [3]: 0.5 | Binding of serum SARS-green to linear peptides of protein E of SARS-CoV Urbani [3]: 0.5 | Binding of serum SARS-green to looped/cyclic peptides of protein E of SARS-CoV Urbani [3]: 0.5 | Binding of serum SARS-yellow to linear peptides of protein E of SARS-CoV Urbani [3]: 0.2 | Binding of serum SARS-yellow to looped/cyclic peptides of protein E of SARS-CoV Urbani [3]: 0.7
